Values quoted from earlier work in US9358096B2, “Methods of treatment with drug eluting stents with prolonged local elution profiles with high local concentrations and low systemic concentrations” (Abbott Laboratories, priority 2007, dated 2016).

What was measured:
[1] = kidney transplant recipients; usual oral dose of sirolimus of 2 mg per day; cited from earlier work
[2] = cited from earlier work

## CO[C@H]1C[C@@H]2CC[C@@H](C)[C@@](O)(O2)C(=O)C(=O)N2CCCC[C@H]2C(=O)O[C@H]([C@H](C)C[C@@H]2CC[C@@H](O)[C@H](OC)C2)CC(=O)[C@H](C)/C=C(\C)[C@@H](O)[C@@H](OC)C(=O)[C@H](C)C[C@H](C)/C=C/C=C/C=C/1C [sirolimus]
[1]
  trough concentration: 9 ng/mL
[2]; after receiving three 80 mm stents configured as stent 1
  peak concentration of sirolimus, one patient: 35.5 ng/mL
[2]; patients treated with stent 1, one hour after stenting
  mean systemic sirolimus concentration: 20.4 ± 10.0 ng/mL
